The supplement of paper PMC10307832

Legend:
Assay in all cases: relative viability (nuclei count vs DMSO), 5 days (fraction); higher = more cells survive
ABC-1 = test system: ABC-1
Procedure, shortened: (§1)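 Medians of duplicate plates are given as relative viability. That measure is the nuclei count in treated wells divided by the count in vehicle wells. Counts were taken on 4× images of lung cancer cell lines in 1536-well plates, 5 days after pin-tool dosing the day after seeding with one drug alone or a fixed anchor-drug dose plus five library-drug doses (not always all listed) in √10 steps.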

CAL-12T = test system: CAL-12T
Procedure, shortened: as §1

COR-L23 = test system: COR-L23
Procedure, shortened: as §1

EKVX = test system: EKVX
Procedure, shortened: as §1

H3255 = test system: H3255
Procedure, shortened: as §1

HCC-15 = test system: HCC-15
Procedure, shortened: as §1

HCC-827 = test system: HCC-827
Procedure, shortened: as §1

LK-2 = test system: LK-2
Procedure, shortened: as §1

NCI-H1355 = test system: NCI-H1355
Procedure, shortened: as §1

NCI-H1437 = test system: NCI-H1437
Procedure, shortened: as §1

NCI-H1563 = test system: NCI-H1563
Procedure, shortened: as §1

NCI-H1650 = test system: NCI-H1650
Procedure, shortened: as §1

NCI-H1651 = test system: NCI-H1651
Procedure, shortened: as §1

NCI-H1734 = test system: NCI-H1734
Procedure, shortened: as §1

NCI-H2228 = test system: NCI-H2228
Procedure, shortened: as §1

NCI-H2405 = test system: NCI-H2405
Procedure, shortened: as §1

NCI-H322M = test system: NCI-H322M
Procedure, shortened: as §1

NCI-H520 = test system: NCI-H520
Procedure, shortened: as §1

NCI-H661 = test system: NCI-H661
Procedure, shortened: as §1

PC-14 = test system: PC-14
Procedure, shortened: as §1

PC-3 [JPC-3] = test system: PC-3 [JPC-3]
Procedure, shortened: as §1

RERF-LC-KJ = test system: RERF-LC-KJ
Procedure, shortened: as §1

SK-MES-1 = test system: SK-MES-1
Procedure, shortened: as §1

SW 1573 = test system: SW 1573
Procedure, shortened: as §1

SMILES: COc1cc(N2CCC(C(N)=O)CC2)ccc1Nc1nc(N)c(Cl)c(Nc2ccccc2S(=O)(=O)C(C)C)n1 [HG-5-88-01] + Cc1nc(Nc2ncc(C(=O)Nc3c(C)cccc3Cl)s2)cc(N2CCN(CCO)CC2)n1 [Dasatinib] (partner 0.075 µM)
- relative viability (ABC-1; first compound 0.04 µM): 0.5
- relative viability (ABC-1; first compound 0.1265 µM): 0.583
- relative viability (ABC-1; first compound 0.4 µM): 0.389
- relative viability (ABC-1; first compound 1.265 µM): 0.457
- relative viability (ABC-1; first compound 4 µM): 0.304
- relative viability (CAL-12T; first compound 0.04 µM): 0.382
- relative viability (CAL-12T; first compound 0.1265 µM): 0.36
- relative viability (CAL-12T; first compound 0.4 µM): 0.154
- relative viability (CAL-12T; first compound 1.265 µM): 0.0794
- relative viability (CAL-12T; first compound 4 µM): 0.0951
- relative viability (COR-L23; first compound 0.04 µM): 0.536
- relative viability (COR-L23; first compound 0.1265 µM): 0.465
- relative viability (COR-L23; first compound 0.4 µM): 0.436
- relative viability (COR-L23; first compound 1.265 µM): 0.374
- relative viability (COR-L23; first compound 4 µM): 0.169
- relative viability (EKVX; first compound 0.04 µM): 0.479
- relative viability (EKVX; first compound 0.1265 µM): 0.563
- relative viability (EKVX; first compound 0.4 µM): 0.435
- relative viability (EKVX; first compound 4 µM): 0.273
- relative viability (H3255; first compound 0.04 µM): 0.338
- relative viability (H3255; first compound 0.1265 µM): 0.411
- relative viability (H3255; first compound 0.4 µM): 0.355
- relative viability (H3255; first compound 4 µM): 0.2
- relative viability (HCC-15; first compound 0.04 µM): 0.669
- relative viability (HCC-15; first compound 0.1265 µM): 0.59
- relative viability (HCC-15; first compound 0.4 µM): 0.416
- relative viability (HCC-15; first compound 1.265 µM): 0.397
- relative viability (HCC-15; first compound 4 µM): 0.347
- relative viability (HCC-827; first compound 0.04 µM): 0.279
- relative viability (HCC-827; first compound 0.1265 µM): 0.271
- relative viability (HCC-827; first compound 0.4 µM): 0.235
- relative viability (HCC-827; first compound 1.265 µM): 0.101
- relative viability (HCC-827; first compound 4 µM): 0.118
- relative viability (LK-2; first compound 0.04 µM): 0.334
- relative viability (LK-2; first compound 0.1265 µM): 0.235
- relative viability (LK-2; first compound 0.4 µM): 0.173
- relative viability (LK-2; first compound 1.265 µM): 0.247
- relative viability (LK-2; first compound 4 µM): 0.184
- relative viability (NCI-H1355; first compound 0.04 µM): 0.675
- relative viability (NCI-H1355; first compound 0.1265 µM): 0.77
- relative viability (NCI-H1355; first compound 0.4 µM): 0.597
- relative viability (NCI-H1355; first compound 1.265 µM): 0.574
- relative viability (NCI-H1355; first compound 4 µM): 0.388
- relative viability (NCI-H1437; first compound 0.04 µM): 0.411
- relative viability (NCI-H1437; first compound 0.1265 µM): 0.306
- relative viability (NCI-H1437; first compound 0.4 µM): 0.231
- relative viability (NCI-H1437; first compound 1.265 µM): 0.234
- relative viability (NCI-H1437; first compound 4 µM): 0.267
- relative viability (NCI-H1563; first compound 0.04 µM): 0.453
- relative viability (NCI-H1563; first compound 0.1265 µM): 0.445
- relative viability (NCI-H1563; first compound 0.4 µM): 0.436
- relative viability (NCI-H1563; first compound 1.265 µM): 0.367
- relative viability (NCI-H1563; first compound 4 µM): 0.381
- relative viability (NCI-H1650; first compound 0.04 µM): 0.324
- relative viability (NCI-H1650; first compound 0.1265 µM): 0.327
- relative viability (NCI-H1650; first compound 0.4 µM): 0.278
- relative viability (NCI-H1650; first compound 1.265 µM): 0.232
- relative viability (NCI-H1650; first compound 4 µM): 0.221
- relative viability (NCI-H1651; first compound 0.04 µM): 0.368
- relative viability (NCI-H1651; first compound 0.1265 µM): 0.619
- relative viability (NCI-H1651; first compound 0.4 µM): 0.375
- relative viability (NCI-H1651; first compound 1.265 µM): 0.249
- relative viability (NCI-H1651; first compound 4 µM): 0.246
- relative viability (NCI-H1734; first compound 0.04 µM): 0.412
- relative viability (NCI-H1734; first compound 0.1265 µM): 0.432
- relative viability (NCI-H1734; first compound 0.4 µM): 0.326
- relative viability (NCI-H1734; first compound 1.265 µM): 0.358
- relative viability (NCI-H1734; first compound 4 µM): 0.284
- relative viability (NCI-H2228; first compound 0.04 µM): 0.106
- relative viability (NCI-H2228; first compound 0.1265 µM): 0.0974
- relative viability (NCI-H2228; first compound 0.4 µM): 0.0904
- relative viability (NCI-H2228; first compound 1.265 µM): 0.101
- relative viability (NCI-H2228; first compound 4 µM): 0.0733
- relative viability (NCI-H2405; first compound 0.04 µM): 0.207
- relative viability (NCI-H2405; first compound 0.1265 µM): 0.179
- relative viability (NCI-H2405; first compound 0.4 µM): 0.155
- relative viability (NCI-H2405; first compound 1.265 µM): 0.197
- relative viability (NCI-H2405; first compound 4 µM): 0.153
- relative viability (NCI-H322M; first compound 0.04 µM): 0.247
- relative viability (NCI-H322M; first compound 0.1265 µM): 0.194
- relative viability (NCI-H322M; first compound 0.4 µM): 0.189
- relative viability (NCI-H322M; first compound 4 µM): 0.216
- relative viability (NCI-H520; first compound 0.04 µM): 0.201
- relative viability (NCI-H520; first compound 0.1265 µM): 0.176
- relative viability (NCI-H520; first compound 0.4 µM): 0.184
- relative viability (NCI-H520; first compound 1.265 µM): 0.162
- relative viability (NCI-H520; first compound 4 µM): 0.2
- relative viability (NCI-H661; first compound 0.04 µM): 0.939
- relative viability (NCI-H661; first compound 0.1265 µM): 0.941
- relative viability (NCI-H661; first compound 0.4 µM): 0.791
- relative viability (NCI-H661; first compound 1.265 µM): 0.514
- relative viability (NCI-H661; first compound 4 µM): 0.664
- relative viability (PC-14; first compound 0.04 µM): 0.234
- relative viability (PC-14; first compound 0.1265 µM): 0.185
- relative viability (PC-14; first compound 0.4 µM): 0.0685
- relative viability (PC-14; first compound 1.265 µM): 0.0374
- relative viability (PC-14; first compound 4 µM): 0.0307
- relative viability (PC-3 [JPC-3]; first compound 0.04 µM): 1.03
- relative viability (PC-3 [JPC-3]; first compound 0.1265 µM): 0.982
- relative viability (PC-3 [JPC-3]; first compound 0.4 µM): 0.902
- relative viability (PC-3 [JPC-3]; first compound 1.265 µM): 0.936
- relative viability (PC-3 [JPC-3]; first compound 4 µM): 0.814
- relative viability (RERF-LC-KJ; first compound 0.04 µM): 0.804
- relative viability (RERF-LC-KJ; first compound 0.1265 µM): 0.81
- relative viability (RERF-LC-KJ; first compound 0.4 µM): 0.671
- relative viability (RERF-LC-KJ; first compound 1.265 µM): 0.465
- relative viability (RERF-LC-KJ; first compound 4 µM): 0.41
- relative viability (SK-MES-1; first compound 0.04 µM): 0.335
- relative viability (SK-MES-1; first compound 0.1265 µM): 0.304
- relative viability (SK-MES-1; first compound 0.4 µM): 0.124
- relative viability (SK-MES-1; first compound 1.265 µM): 0.112
- relative viability (SK-MES-1; first compound 4 µM): 0.155
- relative viability (SW 1573; first compound 0.04 µM): 0.425
- relative viability (SW 1573; first compound 0.1265 µM): 0.426
- relative viability (SW 1573; first compound 0.4 µM): 0.353
- relative viability (SW 1573; first compound 1.265 µM): 0.279
- relative viability (SW 1573; first compound 4 µM): 0.266
